This is an account of results in patent US10934263B2, “Charged ion channel blockers and methods for use” (Nocion Therapeutics, Inc., priority 2019, dated 2021).

Structures are written as SMILES.

In the assay the target is T1, NaV1.7 (Homo sapiens, UniProt Q15858).
T1 construct: expressed in transfected cells; tetracycline-inducible, kept under hygromycin and blasticidin
T1 sequence (Q15858 whole entry): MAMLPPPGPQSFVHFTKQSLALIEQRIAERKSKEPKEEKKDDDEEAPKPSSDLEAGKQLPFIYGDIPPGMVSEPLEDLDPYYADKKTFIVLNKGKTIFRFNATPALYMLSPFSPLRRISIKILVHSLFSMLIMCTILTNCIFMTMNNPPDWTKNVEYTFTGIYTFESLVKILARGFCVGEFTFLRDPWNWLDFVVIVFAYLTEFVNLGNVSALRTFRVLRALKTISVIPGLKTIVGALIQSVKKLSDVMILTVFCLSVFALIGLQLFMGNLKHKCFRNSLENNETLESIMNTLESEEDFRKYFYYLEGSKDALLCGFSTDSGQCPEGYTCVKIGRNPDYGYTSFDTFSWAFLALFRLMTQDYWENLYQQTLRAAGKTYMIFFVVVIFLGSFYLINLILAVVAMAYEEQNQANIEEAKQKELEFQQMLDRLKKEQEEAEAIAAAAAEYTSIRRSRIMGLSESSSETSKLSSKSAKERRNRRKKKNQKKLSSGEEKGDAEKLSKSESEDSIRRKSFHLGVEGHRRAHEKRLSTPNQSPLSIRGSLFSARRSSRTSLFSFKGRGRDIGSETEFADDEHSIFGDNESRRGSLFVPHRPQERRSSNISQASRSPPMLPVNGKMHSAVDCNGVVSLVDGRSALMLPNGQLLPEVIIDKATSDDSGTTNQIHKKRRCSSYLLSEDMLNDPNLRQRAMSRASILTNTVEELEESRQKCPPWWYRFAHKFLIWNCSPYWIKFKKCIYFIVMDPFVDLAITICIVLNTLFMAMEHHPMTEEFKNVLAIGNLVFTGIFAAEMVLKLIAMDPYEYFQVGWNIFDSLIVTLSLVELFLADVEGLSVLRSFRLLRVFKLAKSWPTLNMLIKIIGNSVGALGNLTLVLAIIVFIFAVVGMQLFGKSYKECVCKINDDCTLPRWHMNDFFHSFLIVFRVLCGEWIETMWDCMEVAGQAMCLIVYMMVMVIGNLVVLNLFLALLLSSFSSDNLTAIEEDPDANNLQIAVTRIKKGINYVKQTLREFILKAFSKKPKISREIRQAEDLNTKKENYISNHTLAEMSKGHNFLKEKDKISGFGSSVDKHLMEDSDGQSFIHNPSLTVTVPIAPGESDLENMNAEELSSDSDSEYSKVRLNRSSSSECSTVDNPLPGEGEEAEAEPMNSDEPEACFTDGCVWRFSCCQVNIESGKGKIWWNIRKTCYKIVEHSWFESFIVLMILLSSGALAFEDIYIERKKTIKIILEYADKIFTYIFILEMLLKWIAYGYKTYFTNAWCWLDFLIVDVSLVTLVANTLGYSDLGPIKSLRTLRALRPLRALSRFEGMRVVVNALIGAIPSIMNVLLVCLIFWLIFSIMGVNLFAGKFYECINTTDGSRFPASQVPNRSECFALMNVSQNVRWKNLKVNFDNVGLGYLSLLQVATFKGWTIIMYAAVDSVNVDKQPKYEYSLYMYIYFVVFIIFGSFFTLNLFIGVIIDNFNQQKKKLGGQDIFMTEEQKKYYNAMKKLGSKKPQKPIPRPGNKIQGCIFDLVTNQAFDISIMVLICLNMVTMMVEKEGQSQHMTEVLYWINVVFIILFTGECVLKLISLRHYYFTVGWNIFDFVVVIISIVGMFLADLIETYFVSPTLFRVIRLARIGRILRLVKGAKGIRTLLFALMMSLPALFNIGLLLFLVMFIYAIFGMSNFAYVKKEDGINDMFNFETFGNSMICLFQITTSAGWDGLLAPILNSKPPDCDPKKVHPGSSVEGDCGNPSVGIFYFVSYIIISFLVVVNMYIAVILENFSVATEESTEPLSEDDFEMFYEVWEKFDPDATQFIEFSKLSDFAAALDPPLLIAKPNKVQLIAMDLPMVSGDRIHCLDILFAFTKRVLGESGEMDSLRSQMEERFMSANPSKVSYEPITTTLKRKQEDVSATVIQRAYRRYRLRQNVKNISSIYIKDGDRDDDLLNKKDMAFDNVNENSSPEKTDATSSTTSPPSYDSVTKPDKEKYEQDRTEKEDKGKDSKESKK
Kind of assay: Whole cell patch clamp, external block of NaV1.7 current (compound in external solution). Particulars: % inhibition at test concentration 1,000 μM, compound applied externally; read-out: Nav1.7 Extracellular Inhibition. In kind it is cell-based. The protocol:
Representative compounds of the invention were synthesized according to the described methods and tested for the ability to inhibit voltage-gated sodium channels.
NaV1.7 was expressed upon induction with tetracycline. Cells were cultured in DMEM containing 10% dialyzed Fetal Bovine Serum (VWR, Radnor, Pa.), 1% Glutamax (VWR, Radnor, Pa.), 1% Penicillin-Streptomycin (VWR, Radnor, Pa.), 100 mg/L Hygromycin (Thermo Fisher Scientific, Waltham, Mass. and 5 mg/L Blasticidin (Alfa Aesar, Haverhill, Mass.). Cells were grown and maintained at 37° C. in a humidified environment containing 10% CO2 in air. Cells were detached from the culture flask for passage and harvested using 0.05% Trypsin-EDTA (Thermo Fisher Scientific, Waltham, Mass.). To induce NaV1.7, cells were induced with tetracycline (0.1-1 μg/mL, IBI Scientific, Peosta, Iowa) the day before recording and plated onto 24-well plates. Cells were washed with DPBS (VWR, Radnor, Pa.), trypsinized and then triturated five times in 10 mL of growth media to break apart cell aggregates. For one 24-well plate, 2 mL of cell suspension was mixed with 23 mL of fresh growth media and 0.1-1 μg/mL tetracycline added. 1 ml of mixed media with cells was then added to each well of a 24-well plate, with a 12 mm coverslip already placed in the bottom of the well. Cells were then incubated in 37° C. and 10% CO2 overnight.
The intracellular solution contained the following (in mM) CsCl 135, NaCl 10, EGTA 10, HEPES 10, MgCl2 2, adjusted to pH 7.2 with CsOH. The external solution was a normal Ringer solution containing (in mM) NaCl 155, HEPES 10, glucose 10, KCl 3.5, CaCl2 1.5, MgCl2 1 adjusted to pH 7.4 with NaOH. CsCl is from Alfa Aesar, Haverhill, Mass. All other chemicals are from Sigma-Aldrich, St. Louis, Mo. In order to test the degree of internal block by test compounds the compounds were dissolved in internal solution at the indicated test concentration. […] In order to test the degree of external block by test compounds the compounds were dissolved in external solution at the indicated test concentration.
18-24 hours after cells were induced with tetracycline, coverslips were placed into a chamber filled with Normal Ringer solution at room temperature and the chamber placed on a microscope. Pipettes were pulled from borosilicate glass on a P97 puller (Sutter Instrument, Novato, Calif.) and polished with a MF-830 Microforge (Narishige International USA, Inc, Amityville, N.Y.) to have a resistance of 1.5-2.5 MΩ when filled with CsCl internal solution at room temperature. Healthy cells (those that are round and translucent with no visible blemishes) were chosen for seal formation. A seal was formed between the pipette and the cell, and a brief pulse of suction was used to “break in” and establish the whole-cell configuration. The membrane potential was held at −100 mV before the voltage protocol began. Only cells with series resistance between 1.5-5 MΩ were retained for analysis. The voltage protocol was as follows: Cells were held at −100 mV for 12 ms followed by a hyperpolarizing step to −105 mV for 12 ms to monitor the leak. Cells were then stepped back to −100 mV for 40 ms. Cells were then depolarized to −20 mV for 10 ms and then returned to −100 mV for 26 ms.
Once the recording was started, the voltage protocol was run at 30 second intervals for 5 minutes to get a stable baseline. This is followed by 5 Hz stimulation of the same voltage protocol run until the end of experiment. […] The test compound is added for 5 minutes before washing out with normal Ringer's solution. Currents were recorded using PatchMaster software with Heka EPC10 (HEKA Electronics, Lambrecht, Germany). Only cells with inward current amplitudes at −20 mV between 400 pA and 4 nA were accepted. In addition, cells having leak currents greater than 10% of their current amplitudes were discarded. […]
With `CCOC(=O)CCCn1ccc[n+]1CC(=O)Nc1c(C)cccc1C` [Compound 75], the inhibition at 1000 µM is less than 40%. `CCOC(=O)Cn1cc(C)c[n+]1CC(=O)Nc1c(C)cccc1C` [Compound 76]: the inhibition at 1000 µM is less than 40%.

As for `Cc1cccc(C)c1NC(=O)Cn1ccc[n+]1CC(=O)Nc1c(C)cccc1C` [Compound 109], the inhibition at 1000 µM was less than 40%.

One may read the inhibition as the drop in the measured response relative to a control, in per cent.
